Test results as given in ChEMBL document CHEMBL1149735, “Stereoselective synthesis and antimalarial activity of alpha-artelinic acid from artemisinin” (J Nat Prod, 1992).
Activity calls are given as the source filed them. The rule behind the calls is not given here.

Tests used:
[1] = tested on: Plasmodium knowlesi; experiment: Antimalarial activity as parasite elimination after 24 hrs against Plasmodium knowlesi infected Rhesus monkey at 30 mg/kg intravenous dose; type: functional, organism-based; parameters: dose 30 mg/kg
[2] = tested on: Plasmodium knowlesi; experiment: Antimalarial activity as parasite elimination up to day 50 against Plasmodium knowlesi infected Rhesus monkey at 30 mg/kg intravenous dose over 3 days; type: functional, organism-based; parameters: dose 30 mg/kg
[3] = tested on: Plasmodium knowlesi; experiment: Antimalarial activity as cures at day 50 in Plasmodium knowlesi infected Rhesus monkey assessed at 15 mg/kg intravenous dose for 3 days; type: functional, organism-based; parameters: dose 15 mg/kg
[4] = Toxicity in Swiss mouse; type: organism-based; conditions: in vivo

**Q.** With C[C@@H]1[C@H](OCc2ccc(C(=O)O)cc2)O[C@@H]2O[C@@]3(C)CC[C@@H]4[C@@H](C)CC[C@@H]1[C@]24OO3 [ARTELINIC ACID] as the molecule, how does the Activity [1] read?
**A.** The Activity was “Active”.

**Q.** What about the Activity [2] of the same molecule?
**A.** Its Activity is “Active”.

**Q.** And the Activity [3]?
**A.** Its Activity is “inactive”.

**Q.** What about the LD50 [4] of the same molecule?
**A.** Its LD50 is 1000 mg/kg.
